The test system of the experiment is T lymphocytes. In words: Intracellular Ca2+ signalling in single adherent T lymphocytes loaded with Indo-1 (real-time fluorescence). It is filed as cell-based, human. The note with it: 7 μM ionomycin; Indo-1-loaded T cells; data not shown. As to the method: Early events of intracellular Ca^2+ signalling after EPR-1 occupancy were characterized in real-time fluorescence measurements at the single cell level (Altieri, et al., Biochem. J. 288: 465 (1992)). Freshly isolated T lymphocytes were attached onto Cell-Tak-(Biopolymers, Farmington, Conn.)-coated optical grade glass coverslips (22 mm^2 diameter and <[…] thickness), and loaded intracellularly with 1 μM of the Ca^2+ -sensitive fluorescent dye Indo-1/AM (Grynkiewicz, et al., J. Biol. Chem. 260: 3440 (1985)) (Calbiochem) in 145 mM NaCl, 5 mM KCl, 1 mM Na2 HPO4, 2.5 mM CaCl2, 10 mM glucose, 25 mM HEPES, 0.5 mM MgSO4 for 45 minutes at 37° C. Cells were gently washed in the same loading buffer, and analyzed in real time fluorescence measurements in digitalized imaging using the interactive laser cytometer ACAS 470, as described (Altieri, et al., Id. (1992)). […] After 125 seconds from the addition of the primary mAb, 50 μg/ml aliquots of goat anti-mouse F(ab')2 fragments were added as a cross-linking reagent, and fluorescence changes in the target cells were monitored continuously during a 3-minute interval. Changes in cytosolic free [Ca^2+ ]i under the various conditions tested are expressed as ratio of Detector 1 (free Indo-1, 485 nm wavelength)/Detector 2 (Indo-1:Ca^2+ complex, 405 nm wavelength).

As to `C[C@H](CCC(=O)O)C[C@H](C)C[C@H](C)C(=O)/C=C(\O)[C@H](C)C[C@H](C)C/C=C/[C@@H](C)[C@@H](O)[C@@H](C)[C@@H](O)C[C@@H]1CC[C@@](C)([C@H]2CC[C@@](C)([C@@H](C)O)O2)O1` [ionomycin], the “cytosolic free [Ca2+]i response” value was “large and sustained increase”.

These data come from patent US6238875A, “Diagnostic methods useful in the characterization of lymphoproliferative disease characterized by increased EPR-1” (The Scripps Research Institute, priority 1994, dated 2001).
